{"source": "ChEMBL document CHEMBL1828565", "about": "“Potential AMPK activators of cucurbitane triterpenoids from Siraitia grosvenorii Swingle” (Bioorg Med Chem, 2011)", "note": "Activity calls are given as the source filed them. The rule behind the calls is not given here.", "data": [{"molecular_target": "T1, AMP-activated protein kinase, AMPK (Homo sapiens) (UniProt P54646+O43741+P54619+Q9UGJ0+Q9Y478+Q13131+Q9UGI9)", "test": "Activation of AMPK in human HepG2 cells assessed as increase in AMPK phosphorylation at 1 to 20 uM after 30 mins by Western blotting", "type": "cell-based", "values": [{"smiles": "CC(C)C(=O)CC[C@@H](C)[C@H]1CC[C@@]2(C)[C@@H]3CC=C4[C@@H](CC[C@H](O)C4(C)C)[C@]3(C)[C@H](O)C[C@]12C", "Activity": "Active"}, {"smiles": "C[C@H](CC[C@@H](O)C(C)(C)O)[C@H]1CC[C@@]2(C)[C@@H]3CC=C4[C@@H](CC[C@H](O)C4(C)C)[C@]3(C)C(=O)C[C@]12C", "Activity": "Active"}, {"smiles": "COc1ccc2cc3[n+](cc2c1OC)CCc1cc2c(cc1-3)OCO2", "Activity": "Active"}, {"smiles": "C[C@H](CC[C@@H](O)C(C)(C)O)[C@H]1CC[C@@]2(C)[C@@H]3CC=C4[C@@H](CC[C@@H](O)C4(C)C)[C@]3(C)[C@H](O)C[C@]12C", "Activity": "Active"}, {"smiles": "CC(C)C(=O)CC[C@@H](C)[C@H]1CC[C@@]2(C)[C@@H]3CC=C4[C@@H](CC[C@H](O)C4(C)C)[C@]3(C)C(=O)C[C@]12C", "Activity": "Active"}, {"smiles": "C[C@H](CC[C@@H](O)C(C)(C)O)[C@H]1CC[C@@]2(C)[C@@H]3CC=C4[C@@H](CC[C@H](O)C4(C)C)[C@]3(C)[C@H](O)C[C@]12C", "Activity": "Active"}, {"smiles": "C[C@H](CC[C@@H](O[C@@H]1O[C@H](CO[C@@H]2O[C@H](CO)[C@@H](O)[C@H](O)[C@H]2O)[C@@H](O)[C@H](O)[C@H]1O[C@@H]1O[C@H](CO)[C@@H](O)[C@H](O)[C@H]1O)C(C)(C)O)[C@H]1CC[C@@]2(C)[C@@H]3CC=C4[C@@H](CC[C@H](O[C@@H]5O[C@H](CO[C@@H]6O[C@H](CO)[C@@H](O)[C@H](O)[C@H]6O)[C@@H](O)[C@H](O)[C@H]5O)C4(C)C)[C@]3(C)[C@H](O)C[C@]12C", "Activity": "inactive"}, {"smiles": "COC(C)(C)[C@H](O)CC[C@@H](C)[C@H]1CC[C@@]2(C)[C@@H]3CC=C4[C@@H](CC[C@H](O)C4(C)C)[C@]3(C)[C@H](O)C[C@]12C", "Activity": "Active"}, {"smiles": "COC(C)(C)[C@H](O)CC[C@@H](C)[C@H]1CC[C@@]2(C)[C@@H]3CC=C4[C@@H](CC[C@H](O)C4(C)C)[C@]3(C)C(=O)C[C@]12C", "Activity": "Active"}]}, {"molecular_target": "T1, AMP-activated protein kinase, AMPK (Homo sapiens)", "test": "Activation of AMPK in human HepG2 cells assessed as increase in AMPK phosphorylation at 10 uM after 30 mins by Western blotting", "type": "cell-based", "values": [{"smiles": "CC(C)C(=O)CC[C@@H](C)[C@H]1CC[C@@]2(C)[C@@H]3CC=C4[C@@H](CC[C@@H](O)C4(C)C)[C@]3(C)[C@H](O)C[C@]12C", "Activity": "Active"}]}]}
